From ChEMBL document CHEMBL4251736, “Discovery of Novel Diarylpyrimidine Derivatives as Potent HIV-1 NNRTIs Targeting the "NNRTI Adjacent" Binding Site” (ACS Med Chem Lett, 2018)
Activity calls are given as the source filed them. The rule behind the calls is not given here.

Columns and labels:
[1] = test system: Human immunodeficiency virus 1; experiment: Antiviral activity against HIV1 harboring reverse transcriptase K103N mutant infected in human MT4 cells assessed as inhibition of viral replication after 5 days by MTT assay; assay type: functional, organism-based; settings: Human immunodeficiency virus 1, MT4, 120 h
[2] = test system: Human immunodeficiency virus 2; experiment: Antiviral activity against HIV2 ROD infected in human MT4 cells assessed as inhibition of virus-induced cytopathic effect after 5 days by MTT assay; assay type: functional, organism-based; settings: ISOLATE ROD
[3] = target: Human immunodeficiency virus type 1 reverse transcriptase (Human immunodeficiency virus 1, UniProt Q72547); experiment: Inhibition of recombinant wild type HIV1 reverse transcriptase assessed as decrease in biotin-dUTP incorporation using DIG-labeled dUTP/biotin-labeled dUTP and dTTP as template and viral nucleotides after 1 hr by ELISA
[4] = test system: Human immunodeficiency virus 1; experiment: Antiviral activity against wild type HIV1 3B infected in human MT4 cells assessed as inhibition of virus-induced cytopathic effect after 5 days by MTT assay; assay type: functional, organism-based; settings: Human immunodeficiency virus 1, 3B, MT4, 120 h
[5] = Selectivity index, ratio of CC50 for human MT4 cells to EC50 for wild type HIV1 3B; assay type: toxicity; settings: read-out: Ratio CC50/EC50
[6] = Cytotoxicity against human MT4 cells assessed as decrease in cell viability after 5 days by MTT assay; assay type: cell-based
[7] = test system: Human immunodeficiency virus 1; experiment: Fold resistance, ratio of EC50 for HIV1 harboring reverse transcriptase K103N mutant infected in human MT4 cells to EC50 for wild type HIV1 3B infected in human MT4 cells; assay type: functional
[8] = test system: Human immunodeficiency virus 1; experiment: Antiviral activity against HIV1 harboring reverse transcriptase E138K mutant infected in human MT4 cells assessed as inhibition of viral replication after 5 days by MTT assay; assay type: functional, organism-based; settings: for EC50: Human immunodeficiency virus 1, MT4, 120 h
[9] = test system: Human immunodeficiency virus 1; experiment: Potency index, ratio of etravirine EC50 to compound EC50 for HIV1 harboring reverse transcriptase K103N mutant infected in human MT4 cells; assay type: functional
[10] = test system: Human immunodeficiency virus 1; experiment: Antiviral activity against HIV1 RES056 harboring reverse transcriptase K103N/Y181C double mutant infected in human MT4 cells assessed as inhibition of viral replication after 5 days by MTT assay; assay type: functional, organism-based; settings: Human immunodeficiency virus 1, RES056, MT4, 120 h
[11] = test system: Human immunodeficiency virus 1; experiment: Antiviral activity against HIV1 harboring reverse transcriptase Y188L mutant infected in human MT4 cells assessed as inhibition of viral replication after 5 days by MTT assay; assay type: functional, organism-based
[12] = test system: Human immunodeficiency virus 1; experiment: Antiviral activity against HIV1 harboring reverse transcriptase F227L/V106A double mutant infected in human MT4 cells assessed as inhibition of viral replication after 5 days by MTT assay; assay type: functional, organism-based; settings: Human immunodeficiency virus 1, MT4, 120 h
[13] = test system: Human immunodeficiency virus 1; experiment: Antiviral activity against HIV1 harboring reverse transcriptase Y181C mutant infected in human MT4 cells assessed as inhibition of viral replication after 5 days by MTT assay; assay type: functional, organism-based; settings: Human immunodeficiency virus 1, MT4, 120 h
[14] = test system: Human immunodeficiency virus 1; experiment: Antiviral activity against HIV1 harboring reverse transcriptase L100I mutant infected in human MT4 cells assessed as inhibition of viral replication after 5 days by MTT assay; assay type: functional, organism-based; settings: Human immunodeficiency virus 1, MT4, 120 h

SMILES	EC50 [1]	inhibition [2]	IC50 [3]	EC50 [4]	selectivity ratio [5]	CC50 at 120 h [6]	Ratio EC50 [7]	EC50 [8]	inhibition [8]	Ratio EC50 [9]	EC50 [10]	inhibition [11]	EC50 [12]	EC50 [13]	EC50 [14]
Cc1cc(C#N)cc(C)c1Oc1nc(Nc2ccc(C#N)cc2)ncc1SCC(N)=O	1.4 to 44.9 nM	inactive	13 to 863 nM	2.4 to 216 nM	152 to 15400	5100 to 149000 nM	0.4 - 1.9	6 to 34.7 nM	–	–	–	–	–	–	–
Cc1cc(C#N)cc(C)c1Oc1nc(Nc2ccc(C#N)cc2)ncc1SCC(=O)NCCN1CCN(C(=O)OC(C)(C)C)CC1	1.4 to 44.9 nM	inactive	13 to 863 nM	32.6 nM	152 to 15400	5100 to 149000 nM	0.4 - 1.9	6 to 157 nM	–	–	–	–	–	–	–
Cc1cc(C#N)cc(C)c1Oc1nc(Nc2ccc(C#N)cc2)ncc1SCC(=O)NCC1CC1	–	inactive	13 to 863 nM	3.8 nM	152 to 15400	5100 to 149000 nM	–	–	–	–	–	–	–	–	–
COC(=O)CCSc1cnc(Nc2ccc(C#N)cc2)nc1Oc1c(C)cc(C#N)cc1C	–	inactive	13 to 863 nM	60.2 nM	152 to 15400	5100 to 149000 nM	–	–	–	–	–	–	–	–	–
Cc1cc(C#N)cc(C)c1Oc1nc(Nc2ccc(C#N)cc2)ncc1SCC(=O)C(=O)O	–	inactive	13 to 863 nM	2.4 to 216 nM	152 to 15400	5100 to 149000 nM	–	–	–	–	–	–	–	–	–
COC(=O)CCS(=O)(=O)c1cnc(Nc2ccc(C#N)cc2)nc1Oc1c(C)cc(C#N)cc1C	–	inactive	13 to 863 nM	1560 nM	9	5100 to 149000 nM	–	–	–	–	–	–	–	–	–
Cc1cc(C#N)cc(C)c1Oc1nc(Nc2ccc(C#N)cc2)ncc1SCC(=O)NCc1ccc(O)cc1	1.4 to 8.3 nM	inactive	13 to 863 nM	< 10 nM	152 to 15400	5100 to 149000 nM	–	6 to 34.7 nM	–	–	–	–	–	–	–
Cc1cc(C#N)cc(C)c1Oc1nc(Nc2ccc(C#N)cc2)ncc1SCC(=O)N1CCSCC1	1.4 to 44.9 nM	inactive	13 to 863 nM	38.3 nM	152 to 15400	5100 to 149000 nM	0.4 - 1.9	6 to 157 nM	–	–	–	–	–	–	–
COC(=O)CS(=O)(=O)c1cnc(Nc2ccc(C#N)cc2)nc1Oc1c(C)cc(C#N)cc1C	–	inactive	13 to 863 nM	68.8 nM	152 to 15400	5100 to 149000 nM	–	–	–	–	–	–	–	–	–
Cc1cc(C#N)cc(C)c1Oc1nc(Nc2ccc(C#N)cc2)ncc1SCC(=O)N1CC[C@H](NC(=O)OC(C)(C)C)C1	–	inactive	13 to 863 nM	33.9 nM	152 to 15400	5100 to 149000 nM	–	–	–	–	–	–	–	–	–
Cc1cc(C#N)cc(C)c1Oc1nc(Nc2ccc(C#N)cc2)ncc1SCC(=O)N1CCN(C(=O)OC(C)(C)C)CC1	–	inactive	13 to 863 nM	88.5 nM	152 to 15400	5100 to 149000 nM	–	–	–	–	–	–	–	–	–
Cc1ccnc2c1NC(=O)c1cccnc1N2C1CC1	–	–	–	–	–	–	–	–	Active	–	–	–	–	–	–
COC(=O)CSc1cnc(Nc2ccc(C#N)cc2)nc1Oc1c(C)cc(C#N)cc1C	–	inactive	13 to 863 nM	65.9 nM	152 to 15400	5100 to 149000 nM	–	–	–	–	–	–	–	–	–
Cc1cc(C#N)cc(C)c1Oc1nc(Nc2ccc(C#N)cc2)ncc1SCC(=O)NCC1CCCO1 (stereo unspecified)	1.4 to 8.3 nM	inactive	13 to 863 nM	< 10 nM	152 to 15400	5100 to 149000 nM	–	6 to 34.7 nM	–	–	–	–	–	–	–
Cc1cc(C#N)cc(C)c1Oc1nc(Nc2ccc(C#N)cc2)ncc1SCC(=O)Nc1ccc(S(C)(=O)=O)cc1	1.4 to 8.3 nM	inactive	13 to 863 nM	< 10 nM	152 to 15400	5100 to 149000 nM	–	6 to 34.7 nM	–	–	–	–	–	–	–
C=CCNC(=O)CSc1cnc(Nc2ccc(C#N)cc2)nc1Oc1c(C)cc(C#N)cc1C	1.4 to 8.3 nM	inactive	13 to 863 nM	2.4 to 3.8 nM	152 to 15400	5100 to 149000 nM	–	6 to 34.7 nM	–	1.3 - 2.3	–	–	–	–	–
Cc1cc(C#N)cc(C)c1Oc1nc(Nc2ccc(C#N)cc2)ncc1SCC(=O)NC1CCN(C(=O)OC(C)(C)C)CC1	1.4 to 44.9 nM	inactive	13 to 863 nM	< 10 nM	152 to 15400	5100 to 149000 nM	0.4 - 1.9	6 to 157 nM	–	–	–	–	–	–	–
COCCNC(=O)CSc1cnc(Nc2ccc(C#N)cc2)nc1Oc1c(C)cc(C#N)cc1C	1.4 to 8.3 nM	inactive	26 nM	3.8 nM	152 to 15400	5100 to 149000 nM	–	6 to 34.7 nM	–	1.3 - 2.3	> 100 nM	Active	> 100 nM	–	–
Cc1cc(C#N)cc(C)c1Oc1nc(Nc2ccc(C#N)cc2)ncc1SCC(=O)NCCN1CCOCC1	1.4 to 8.3 nM	inactive	13 to 863 nM	2.6 to 6.2 nM	152 to 15400	5100 to 149000 nM	–	6 to 34.7 nM	–	1.3 - 2.3	–	–	–	–	–
O=C1Nc2ccc(Cl)cc2[C@@](C#CC2CC2)(C(F)(F)F)O1 [EFAVIRENZ]	81 nM	–	–	–	–	–	–	–	–	–	–	–	–	–	–
Cc1cn([C@H]2C[C@H](N=[N+]=[N-])[C@@H](CO)O2)c(=O)[nH]c1=O [ZIDOVUDINE]	–	–	–	–	–	–	–	38.6 nM	–	–	–	–	–	14.1 nM	8.3 nM
